Data published in patent US6797700B2, “Antithrombotic azacycloalkylalkanoyl peptides and pseudopeptides” (Aventis Pharmaceuticals, Inc., priority 1993, dated 2004).
Like-named read-outs stand apart in the source and are kept apart here.

What was measured:
[1] = tested on: ADP-induced platelet aggregation in canine platelet rich plasma; experiment: Inhibition of ADP-Induced ex-vivo Platelet Aggregation after oral administration; assay type: in vivo, mongrel dogs; settings: Canis lupus familiaris, Platelet, dog
Experimental: Inhibition of ADP-Induced ex-vivo Platelet Aggregation
Control blood samples are obtained 5-10 minutes prior to administration of the test compound in mongrel dogs weighing from 10 to 20 kg. The compound is administered intragasticly, via aqueous gavage, or orally, via gelatin capsule. Blood samples (5 ml) are then obtained at 30 minute intervals for 3 hours, and at 6, 12, and 24 hours after dosing. Each blood sample is obtained by venipuncture of the cephalic vein and is collected directly into a plastic syringe containing one part 3.8% trisodium citrate to nine parts blood.
Ex vivo Canine Platelet Aggregation
The blood samples are centrifuged at 1000 rpm for 10 minutes to obtain platelet rich plasma (PRP). After removal of the PRP, the sample is centrifuged for an additional 10 minutes at 2000 rpm to obtain platelet poor plasma (PPP). Platelet count in the PRP is determined by using a Coulter Counter (Coulter Electronics, Hialeah, Fla.). If the concentration of platelets in the PRP is greater than 300,000 platelets/μl, then the PRP is diluted with PPP to adjust the platelet count to 300,000 platelets/μl. Aliquots of PRP (250 μl) are then placed in siliconized glass cuvettes (7.25×55 mm, Bio/Data Corp, Horsham, Pa.). Epinephrine (final concentration of 1 μM) is then added to the PRP, which is incubated for one minute at 37° C. A stimulator of platelet aggregation, ADP at a final concentration of 10 μM, is then added to the PRP. Platelet aggregation is monitored spectrophotometrically utilizing a light transmission aggregometer (Bio/Data Platelet Aggregation Profiler, Model PAP-4, Bio/Data Corp, Horsham, Pa.). For compound to be tested, the rate of change (slope) of light transmittance and the maximum light transmittance (maximum aggregation) is recorded in duplicate. Platelet aggregation data are reported as the percent decrease (mean±SEM) in slope or maximum aggregation as compared to data obtained from control PRP, which is prepared from blood samples obtained prior to administration of the test compound.

[2] = tested on: fixed activated platelets; experiment: Platelet Aggregation Assay (fixed-activated platelets, fibrinogen-mediated aggregation); assay type: cell-based; settings: aggregation initiated by human fibrinogen 250 μg/ml, read-out: Inhibition of Fixed Platelet Aggregation (IC50 μM)
Experimental: Preparation of Fixed-Activated Platelets
Platelets are isolated from human platelet concentrates using the gel-filtration technique as described by Marguerie, G. A., et al., J. Biol. Chem. 254, 5357-5363 (1979) and Ruggeri, Z. M., et al., J. Clin. Invest. 72, 1-12 (1983). The platelets are suspended at a concentration of 2×10^8 cells/ml in a modified calcium-free Tyrode's buffer containing 127 mM sodium chloride, 2 mM magnesium chloride, 0.42 mM Na2HPO4, 11.9 mM NaHCO3, 2.9 mM KCl, 5.5 mM glucose, 10 mM HEPES, at a pH of 7.35 and 0.35% human serum albumin (HSA). These washed platelets are activated by addition of human a-thrombin at a final concentration of 2 units/ml, followed by thrombin inhibitor I-2581 at a final concentration of 40 μM. To the activated platelets is added paraformaldehyde to a final concentration of 0.50% and this incubated at room temperature for 30 minutes. The fixed activated platelets are then collected by centrifugation at 650×g for 15 minutes. The platelet pellets are washed four times with the above Tyrode's-0.35% HSA buffer and resuspended to 2×10^8 cells/ml in the same buffer.
Platelet Aggregation Assay
The fixed activated platelets are incubated with a selected dose of the compound to be tested for platelet aggregation inhibition for one minute and aggregation initiated by addition of human fibrinogen to a final concentration of 250 μg/ml. A platelet aggregation profiler Model PAP-4 is used to record the platelet aggregation. The extent of inhibition of aggregation is expressed as the percentage of the rate of aggregation observed in the absence of inhibitor.

[3] = 1 h after dosing, read-out: % Inhibition of ex-vivo Platelet Aggregation After Oral Administration, 1 h
[4] = 3 h after dosing, read-out: % Inhibition of ex-vivo Platelet Aggregation After Oral Administration, 3 h
[5] = 6 h after dosing, read-out: % Inhibition of ex-vivo Platelet Aggregation After Oral Administration, 6 h
[6] = 12 h after dosing, read-out: % Inhibition of ex-vivo Platelet Aggregation After Oral Administration, 12 h
[7] = 24 h after dosing, read-out: % Inhibition of ex-vivo Platelet Aggregation After Oral Administration, 24 h

| Compound | IC50 ([2]; Homo sapiens, Platelet) | IC50 ([2]; fixed activated human platelets) | inhibition at 10 mg/kg [1, 3] | inhibition at 10 mg/kg [1, 4] | inhibition at 10 mg/kg [1, 5] | inhibition at 5 mg/kg [1, 3] | inhibition at 5 mg/kg [1, 4] | inhibition at 5 mg/kg [1, 5] | inhibition at 5 mg/kg [1, 6] | inhibition at 5 mg/kg [1, 7] |
| --- | --- | --- | --- | --- | --- | --- | --- | --- | --- | --- |
| CCN(CC(=O)NC(CC(=O)O)C(=O)NC(C(=O)O)C(C)C)C(=O)CCCC1CCNCC1 (centres unmarked) [Example 4] | 0.72 µM |  | 90% | 50% | < 20% |  |  |  |  |  |
| CCN(CC(=O)NC(CC(=O)O)C(=O)NC(CC(C)(C)C)C(=O)O)C(=O)CCCC1CCNCC1 (centres unmarked) [Example 5] | 0.082 µM |  | 100% | 90% | 35% |  |  |  |  |  |
| CCCCC(NC(=O)C(CC(=O)O)NC(=O)CN(CC)C(=O)CCCC1CCNCC1)C(=O)O (centres unmarked) [Example 6] | 0.13 µM |  | 80% | 20% |  |  |  |  |  |  |
| CCN(CC(=O)NC(CC(=O)O)C(=O)NC(Cc1cccc2ccccc12)C(=O)O)C(=O)CCCC1CCNCC1 [Example 7, N-[N-[N-(4-(piperidin-4-yl)butanoyl)-N-ethylglycyl]aspartyl]-L-b-naphth-1-yl alanine] | 0.11 µM |  |  |  |  | 30% | < 20% |  |  |  |
| CCN(CC(=O)NC(CC(=O)O)C(=O)NC(CC1CCCCC1)C(N)=O)C(=O)CCCC1CCNCC1 [Example 12, N-[N-[N-(4-(piperidin-4-yl)butanoyl)-N-ethylglycyl]aspartyl]-L-b-cyclohexyl alanine amide] | 0.097 µM |  |  |  |  | 100% | 100% | 100% | 98% | 50% |
| CCN(CC(=O)NC(CC(=O)O)C(=O)NC(CC1CCCC2CCCCC21)C(=O)O)C(=O)CCCC1CCNCC1 [Example 14, N-[N-[N-(4-(piperidin-4-yl)butanoyl)-N-ethylglycyl]aspartyl]-L-b-decahydronaphth-1-yl alanine] |  | 0.019 µM |  |  |  | 100% | 100% | 100% | 100% | 95% |

Further lines, with some results ahead:

| IC50 ([2]; Homo sapiens, Platelet) | IC50 ([2]; fixed activated human platelets) | Compound | inhibition at 10 mg/kg [1, 3] | inhibition at 10 mg/kg [1, 4] | inhibition at 10 mg/kg [1, 5] | inhibition at 5 mg/kg [1, 3] | inhibition at 5 mg/kg [1, 4] | inhibition at 5 mg/kg [1, 5] | inhibition at 5 mg/kg [1, 6] | inhibition at 5 mg/kg [1, 7] |
| --- | --- | --- | --- | --- | --- | --- | --- | --- | --- | --- |
| 0.027 µM |  | CCN(CC(=O)N[C@@H](CC(=O)O)C(=O)N[C@H](C(=O)O)C(C)C)C(=O)CCCC1CCNCC1 [Example 2, N-[N-[N-(4-(piperidin-4-yl)butanoyl)-N-ethylglycyl]aspartyl]valine] | 90% | 60% | < 20% |  |  |  |  |  |
| 0.064 µM |  | CCN(CC(=O)NC(CC(=O)O)C(=O)NC(Cc1ccccc1)C(=O)O)C(=O)CCCC1CCNCC1 (centres unmarked) [Example 3, N-[N-[N-(4-piperidin-4-yl)-N-ethylglycyl]aspartyl]phenylalanine] | 40% | < 20% |  |  |  |  |  |  |
| 0.064 µM |  | CCOC(=O)C(CC1CCCCC1)NC(=O)C(CC(=O)O)NC(=O)CN(CC)C(=O)CCCC1CCNCC1 [Example 11, N-[N-[N-(4-(piperidin-4-yl)butanoyl)-N-ethylglycyl]aspartyl]-L-b-cyclohexyl alanine, ethyl ester] |  |  |  | 100% | 100% | 60% | 37% |  |
| 0.072 µM |  | CCN(CC(=O)N[C@@H](CC(=O)O)C(=O)NCCC1CCCCC1)C(=O)CCCC1CCNCC1 [Example 15, 2-cyclohexyl-N-[N-[N-(4-(piperidin-4-yl)butanoyl)-N-ethylglycyl]aspartyl]-ethylamine] |  |  |  | 35% | 18% |  |  |  |
